Laboratory results from US8574831B2, “Mutational profiles in HIV-1 reverse transcriptase correlated with phenotypic drug resistance” (Virco N.V., priority 2000, dated 2013).

Tested on: HIV with mutations in the HIV protease sequence
Test: Phenotypic fold resistance to protease inhibitors, protease mutations 84A/84L/84C/54M/54L/54V in a background (Examples 8-13)
Format: cell-based, HIV-1
Description: As is the case with the genotyping assays, the recombinant virus assay starts with the amplification of viral target sequences by means of PCR. The amplicons are incorporated into a proviral laboratory clone with sequences homologous to those present in the amplicon deleted. This generates a stock of chimeric viruses. The viruses are tested for their ability to grow in the presence of different concentrations of drugs. Results are obtained by calculating IC50 values for each inhibitor and by reporting the results as IC50 values, expressed in μM concentrations, or by computing the ratio of the IC50 values found for the chimeric virus to the IC50 values found for a wild type susceptible laboratory virus tested in parallel. In the latter case, resistance is expressed as “fold-resistance” compared to a wild-type susceptible HIV-1 strain. In order to meet the need for high-volume testing and a short turn-around time for an individual test, the latest generation of phenotyping assays has undergone further modifications. The use of reporter gene systems for susceptibility testing allows the implementation of laboratory automation and standardization. See Pauwels, et al., J. Virol. Methods 20, 309-321 (1998); Paulous, S., et al., International Workshop on HIV Drug Resistance, Treatment Strategies and Eradication, St. Petersburg, Fla., USA. Abstr. 46 (1997); and Deeks, S. G., et al., 2nd International Workshop on HIV Drug Resistance and Treatment Strategies, Lake Maggiore, Italy. Abstr. 53 (1998).
The ANTIVIROGRAM® assay (Virco) (WO 97/27480) is based on homologous recombination of patient derived HIV-1 gag/PR/RT sequences into a proviral HIV-1 clone correspondingly deleted for the gag/PR/RT sequences. See Pauwels, et al., J. Virol. Methods 20, 309-321 (1998). A similar assay (Phenosense ViroLogic) is based on enzymatic ligation of patient-derived PR/RT sequences into a correspondingly deleted proviral vector carrying an indicator gene, luciferase, inserted in the deleted HIV-1 envelope gene. See Deeks, S. G., et al., 2nd International Workshop on HIV Drug Resistance and Treatment Strategies, Lake Maggiore, Italy. Abstr. 53 (1998). Hertogs et al. Antimicrob. Agents Chemother. 44(3) 568-573 (2000) the disclosures of which are herein incorporated by reference.
The methods of monitoring HIV-1 drug resistance, may also be used in combination with phenotypic drug resistance testing of viral isolates. For example, in one embodiment, a phenotypic test is utilized that is based upon the construction of chimeric HIV-1 strains composed of the protease (PR) and reverse transcriptase (RT) gene sequences which are isolated and amplified from the patient viral RNA. These strains may subsequently be recombined inside CD4+ T cells with a standard laboratory isogenic (HXB2) HIV-1 DNA construct from which the PR/RT gene sequences were deleted. The recombinant strains may then be grown in the presence of the above-mentioned antiviral drugs and the susceptibility of the viral isolates may be expressed as fold-change value of the IC50 of the drug on the patient isolates over the IC50 of the drug on a wild-type laboratory reference strain.

CC(C)CN(C[C@@H](O)[C@H](Cc1ccccc1)NC(=O)O[C@H]1CCOC1)S(=O)(=O)c1ccc(N)cc1 [Amprenavir, amprenavir]
Fold change in IC50 (Table 12, V055199, genotype 10I + 33F + 54M + 90M): 38.7 fold
Fold change in IC50 (Table 13, V19263, genotype 77I): 0.6 fold
Fold change in IC50 (Table 13, V20160, genotype WT): 1.0 fold
Fold change in IC50 (Table 13, V021667, genotype 10I): 1.1 fold
Fold change in IC50 (Table 13, V030496, genotype 10I + 77I): 0.5 fold
Fold change in IC50 (Table 13, V048868, genotype 10I + 54L + 71V + 77I + 90M): 4.1 fold
Fold change in IC50 (Table 13, V048874, genotype 10I + 33F + 54L + 71V + 77I + 90M): 32.1 fold
Fold change in IC50 (Table 13, V048875, genotype 10I + 33F + 54L + 71V + 77I + 90M): 24.6 fold
Fold change in IC50 (Table 13, V048877, genotype 10I + 33F + 77I + 90M): 7.9 fold
Fold change in IC50 (Table 13, V048880, genotype 10I + 33F + 77I + 90M): 3.8 fold
Fold change in IC50 (Table 13, V052940, genotype 71V): 0.3 fold
Fold change in IC50 (Table 13, V052942, genotype 10I + 71V): 0.5 fold
Fold change in IC50 (Table 13, V052943, genotype 10I + 90M): 0.4 fold
Fold change in IC50 (Table 13, V052944, genotype 10I + 90M): 0.7 fold
Fold change in IC50 (Table 13, V052945, genotype 77I + 90M): 0.3 fold
Fold change in IC50 (Table 13, V052946, genotype 71V + 90M): 0.5 fold
Fold change in IC50 (Table 13, V052947, genotype 10I + 77I + 90M): 1.2 fold
Fold change in IC50 (Table 13, V052948, genotype 10I + 71V + 90M): 2.0 fold
Fold change in IC50 (Table 13, V052949, genotype 10I + 71V + 77I + 90M): 0.6 fold
Fold change in IC50 (Table 13, V052950, genotype 33F): 0.7 fold
Fold change in IC50 (Table 13, V052951, genotype 33F + 77I): 0.3 fold
Fold change in IC50 (Table 13, V052953, genotype 10I + 33F + 77I): 1.5 fold
Fold change in IC50 (Table 13, V052954, genotype 33F + 77I + 90M): 2.1 fold
Fold change in IC50 (Table 13, V052955, genotype 33F + 71V + 90M): 2.7 fold
Fold change in IC50 (Table 13, V052968, genotype 10L/I + 33F/L + 54L + 77I): 2.9 fold
Fold change in IC50 (Table 13, V052969, genotype 10I + 33F + 54L + 90M): 10.4 fold
Fold change in IC50 (Table 13, V052970, genotype 54L): 0.8 fold
Fold change in IC50 (Table 13, V052971, genotype 10I + 54L): 2.6 fold
Fold change in IC50 (Table 13, V052972, genotype 54L + 77I): 1.1 fold
Fold change in IC50 (Table 13, V052973, genotype 10I + 54L + 77I): 2.1 fold
Fold change in IC50 (Table 13, V052974, genotype 10I + 54L + 90M): 1.2 fold
Fold change in IC50 (Table 13, V052975, genotype 10I + 54L + 71V + 90M): 6.2 fold
Fold change in IC50 (Table 13, V052976, genotype 10I + 54L + 71V + 77I + 90M): 2.0 fold
Fold change in IC50 (Table 13, V053832, genotype 10I + 33F): 0.6 fold
Fold change in IC50 (Table 13, V053854, genotype 54L + 71V): 5.0 fold
Fold change in IC50 (Virco ID 214846, genotype 10I + 33F + 54V + 71V + 77I + 90M, vs mean IC50 of wild type laboratory HIV strain): 4.2 fold
Fold change in IC50 (Virco ID V021667, genotype 10I, vs mean IC50 of wild type laboratory HIV strain): 1.1 fold
Fold change in IC50 (Virco ID V030496, genotype 10I + 77I, vs mean IC50 of wild type laboratory HIV strain): 0.5 fold
Fold change in IC50 (Virco ID V048876, genotype 33F + 54V + 77I + 90M, vs mean IC50 of wild type laboratory HIV strain): 1.1 fold
Fold change in IC50 (Virco ID V048877, genotype 10I + 33F + 77I + 90M, vs mean IC50 of wild type laboratory HIV strain): 7.9 fold
Fold change in IC50 (Virco ID V048880, genotype 10I + 33F + 77I + 90M, vs mean IC50 of wild type laboratory HIV strain): 3.8 fold
Fold change in IC50 (Virco ID V052940, genotype 71V, vs mean IC50 of wild type laboratory HIV strain): 0.3 fold
Fold change in IC50 (Virco ID V052942, genotype 10I + 71V, vs mean IC50 of wild type laboratory HIV strain): 0.5 fold
Fold change in IC50 (Virco ID V052943, genotype 10I + 90M, vs mean IC50 of wild type laboratory HIV strain): 0.4 fold
Fold change in IC50 (Virco ID V052944, genotype 10I + 90M, vs mean IC50 of wild type laboratory HIV strain): 0.7 fold
Fold change in IC50 (Virco ID V052946, genotype 71V + 90M, vs mean IC50 of wild type laboratory HIV strain): 0.5 fold
Fold change in IC50 (Virco ID V052947, genotype 10I + 77I + 90M, vs mean IC50 of wild type laboratory HIV strain): 1.2 fold
Fold change in IC50 (Virco ID V052948, genotype 10I + 71V + 90M, vs mean IC50 of wild type laboratory HIV strain): 2.0 fold
Fold change in IC50 (Virco ID V052949, genotype 10I + 71V + 77I + 90M, vs mean IC50 of wild type laboratory HIV strain): 0.6 fold
Fold change in IC50 (Virco ID V052950, genotype 33F, vs mean IC50 of wild type laboratory HIV strain): 0.7 fold
Fold change in IC50 (Virco ID V052951, genotype 33F + 77I, vs mean IC50 of wild type laboratory HIV strain): 0.3 fold
Fold change in IC50 (Virco ID V052953, genotype 10I + 33F + 77I, vs mean IC50 of wild type laboratory HIV strain): 1.5 fold
Fold change in IC50 (Virco ID V052954, genotype 33F + 77I + 90M, vs mean IC50 of wild type laboratory HIV strain): 2.1 fold
Fold change in IC50 (Virco ID V052955, genotype 33F + 71V + 90M, vs mean IC50 of wild type laboratory HIV strain): 2.7 fold
Fold change in IC50 (Virco ID V052957, genotype 10I + 33F + 54V + 90M, vs mean IC50 of wild type laboratory HIV strain): 5.2 fold
Fold change in IC50 (Virco ID V052958, genotype 10I + 33F + 54V + 77I + 90M, vs mean IC50 of wild type laboratory HIV strain): 7.8 fold
Fold change in IC50 (Virco ID V052959, genotype 10I + 33F + 54V + 77I + 90M, vs mean IC50 of wild type laboratory HIV strain): 7.0 fold
Fold change in IC50 (Virco ID V052960, genotype 10I + 33F + 54V + 71V + 90M, vs mean IC50 of wild type laboratory HIV strain): 6.4 fold
Fold change in IC50 (Virco ID V052961, genotype 54V, vs mean IC50 of wild type laboratory HIV strain): 0.5 fold
Fold change in IC50 (Virco ID V052962, genotype 10I + 54V, vs mean IC50 of wild type laboratory HIV strain): 0.5 fold
Fold change in IC50 (Virco ID V052963, genotype 54V + 77I + 90M, vs mean IC50 of wild type laboratory HIV strain): 0.5 fold
Fold change in IC50 (Virco ID V052964, genotype 54V + 71V + 90M, vs mean IC50 of wild type laboratory HIV strain): 0.3 fold
Fold change in IC50 (Virco ID V052965, genotype 10I + 54V + 77I + 90M, vs mean IC50 of wild type laboratory HIV strain): 0.7 fold
Fold change in IC50 (Virco ID V052966, genotype 10I + 54V + 71V + 90M, vs mean IC50 of wild type laboratory HIV strain): 1.5 fold
Fold change in IC50 (Virco ID V052967, genotype 10I + 54V + 71V + 77I + 90M, vs mean IC50 of wild type laboratory HIV strain): 0.4 fold
Fold change in IC50 (Virco ID V053358, genotype 33F + 54V + 77I + 90M, vs mean IC50 of wild type laboratory HIV strain): 1.0 fold
Fold change in IC50 (Virco ID V053831, genotype 33F + 54V, vs mean IC50 of wild type laboratory HIV strain): 7.5 fold
Fold change in IC50 (Virco ID V053832, genotype 10I + 33F, vs mean IC50 of wild type laboratory HIV strain): 0.6 fold
